According to article PMC12603070, “A high-throughput screening approach to discover potential colorectal cancer chemotherapeutics: repurposing drugs to identify novel disruptors of 14-3-3 proteins” (Cell Death & Disease, 2025):

Columns and labels:
His-14-3-3ζ = target: T1, His-14-3-3ζ (Homo sapiens, UniProt P63104); assay: Surface plasmon resonance (SPR) on immobilized His-14-3-3ζ; type: binding
T1 construct: made in house; host or cells: Escherichia coli BL21 LOBSTR-RIL
T1 sequence (P63104 1-245): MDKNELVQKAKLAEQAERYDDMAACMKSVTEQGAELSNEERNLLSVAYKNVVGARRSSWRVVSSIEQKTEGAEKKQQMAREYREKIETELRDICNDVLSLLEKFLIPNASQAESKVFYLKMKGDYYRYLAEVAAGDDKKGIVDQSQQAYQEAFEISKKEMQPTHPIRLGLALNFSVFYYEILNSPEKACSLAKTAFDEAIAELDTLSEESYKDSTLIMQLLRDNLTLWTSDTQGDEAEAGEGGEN
Procedure: The published protocol of Higuchi & Ottmann as followed with modifications to express 14-3-3ζ [44]. Escherichia coli BL21 LOBSTR-RIL cells were transformed with a plasmid encoding His-14-3-3ζ. The transformed cells were grown in TB medium containing appropriate antibiotic at 37 °C with shaking at 200 rpm until the culture reached an optical density of 0.6–0.8 at 600 nm (OD600). Protein expression was induced by the addition of isopropyl β-D-1-thiogalactopyranoside to a final concentration of 0.4 mM. Subsequently, the temperature was decreased to 16 °C and the culture incubated for another 16 h. Cells were harvested by centrifugation at 7000 × g for 20 min at 21 °C. The supernatant was discarded, and the cell pellet containing 14-3-3ζ was mixed and resuspended in lysis buffer (50 mM Tris, pH 7.80), 500 mM NaCl, 5 mM imidazole, 5% glycerol, 1 mM PMSF & 1 mM Benzamidine. Cells were lysed by sonication on ice using a probe sonicator (20 cycles of 10 s on, 20 s off, amplitude 70%). The lysate was centrifuged at 30,000 × g for 30 min at 4 °C to remove cell debris. The supernatant was collected for further purification. The 14-3-3ζ was isolated from the lysate by affinity chromatography (Ni-NTA beads, Qiagen). For further purification, the eluant was subjected to size exclusion chromatography using a Superdex 75 gel filtration column (HiLoad 16/600, GE Healthcare), pre-equilibrated with SEC buffer (20 mM Tris, pH 7.5, 150 mM NaCl, 1 mM TCEP). The protein solution was concentrated by ultrafiltration, flash frozen, and stored at −80 °C.
The general protocol for evaluating 14-3-3ζ was adapted from Hartman et al. and modified for our instrument and sensors. The SPR experiments were performed using a Open surface plasmon resonance instrument (OpenSPR^TM, Nicoya, Kitchener-Waterloo, Canada), and high sensitivity-nitrilotriacetic acid (HS-NTA) sensors. The sensor chip surface was first activated with 40 mM of NiCl2 at a flow rate of 20 μL/min using 20 mM HEPES pH 7.8, 150 mM NaCl and 1% DMSO as the running buffer. All running buffers were filtered and degassed prior to use. 100 μg/mL His-14-3-3ζ protein in 20 mM HEPES pH 7.8, 150 mM NaCl and 1% DMSO was injected at 8 μL/min flow rate for 800 s contact time and immobilized until the instrument registered 2900–3500 RU (activation and protein immobalization spectrograms are provided as Supplementary Fig. 10). Drugs were dissolved in DMSO and were diluted with 20 mM HEPES pH 7.8, 150 mM NaCl (final DMSO concentration of 1% v/v) and were injected at a flow rate of 50 μL/min. Single-cycle kinetics were applied for KD evaluation and binding affinity using TraceDrawer v.1.8.1 (Ridgeview Instruments AB).

14-3-3ζ = target: T2, 14-3-3ζ (Homo sapiens, UniProt P63104); assay: Isothermal titration calorimetry (ITC) with purified 14-3-3ζ; type: binding; conditions: 750-1,000 μM ligand, 70 μM protein, 1-4% DMSO
T2 construct: made in house; host or cells: Escherichia coli BL21 LOBSTR-RIL
T2 sequence (P63104 1-245): T1 sequence (P63104 1-245)
Procedure: application to isothermal titration calorimetry (ITC) studies.
ITC experiments were performed, but the solubility incompatibility gave unclear data, with a […]
All ITC experiments were conducted at 750-1,000 μM of the ligand (in the syringe: titrant), with 70 μM of protein in the cell: titrand); each injection introduced approximately 4 nmol of ligand. All experiments were conducted at 1 -4% DMSO based on drug’s solubility. […]

## CCCCCCOC(=O)c1ccc(Nc2c([N+](=O)[O-])cc(C(=O)O)cc2[N+](=O)[O-])cc1 [BV01, 4-((4-((hexyloxy)carbonyl)phenyl)amino)-3,5-dinitrobenzoic acid]
His-14-3-3ζ; SPR curve at 0.005 mM ligand
  Bmax ([Signal (RU)]): 100.98 RU
His-14-3-3ζ; SPR curve at 0.007 mM ligand
  Bmax ([Signal (RU)]): 147.7 RU
His-14-3-3ζ; SPR curve at 0.03 mM ligand
  Bmax ([Signal (RU)]): 198.6 RU
His-14-3-3ζ; SPR curve at 0.05 mM ligand
  Bmax ([Signal (RU)]): 257.38 RU
His-14-3-3ζ; SPR curve at 0.07 mM ligand
  Bmax ([Signal (RU)]): 320.07 RU
His-14-3-3ζ; SPR dissociation rate, value repeated per curve
  kd: 0.0112 s⁻¹
His-14-3-3ζ; SPR fit parameter, per curve
  BI ([Signal (RU)]): 0.1 RU
His-14-3-3ζ; SPR, immobilized His-14-3-3ζ, single-cycle kinetics, 1% DMSO
  Kd: 6.32 µM
His-14-3-3ζ; pH 7.8, read-out: ka
  kon: 1770 M⁻¹ s⁻¹
14-3-3ζ
  Binding by ITC: weak sign of binding
